Laboratory results from patent publication US8623661B2, “Iron chelating agent, method for producing same, method for determining amount of iron ions and method for trapping iron ions” (National University Corporation Asahikawa Medical College, priority 2008, dated 2014).
One block for each molecule: values may come before it.

Experiments:
Assay type in all cases: binding
[1] = target: T1, transferrin iron complex (holo-Transferrin (hTf), human) (Homo sapiens, UniProt P02787); assay: Evaluation D: capture of iron ions from transferrin iron complex; details: for hTf residual ratio (%): relative to non-treated holo-Transferrin, 24 hours with 5 mM chelator solution; for Absorbance (466 nm): transferrin fraction after 24 hours at room temperature with 5 mM chelator solution and 50 μM transferrin iron complex solution, ultrafiltration
T1 construct: purchased Sigma Corporation T0665-50MG
T1 sequence (P02787 20-698, one chain of several): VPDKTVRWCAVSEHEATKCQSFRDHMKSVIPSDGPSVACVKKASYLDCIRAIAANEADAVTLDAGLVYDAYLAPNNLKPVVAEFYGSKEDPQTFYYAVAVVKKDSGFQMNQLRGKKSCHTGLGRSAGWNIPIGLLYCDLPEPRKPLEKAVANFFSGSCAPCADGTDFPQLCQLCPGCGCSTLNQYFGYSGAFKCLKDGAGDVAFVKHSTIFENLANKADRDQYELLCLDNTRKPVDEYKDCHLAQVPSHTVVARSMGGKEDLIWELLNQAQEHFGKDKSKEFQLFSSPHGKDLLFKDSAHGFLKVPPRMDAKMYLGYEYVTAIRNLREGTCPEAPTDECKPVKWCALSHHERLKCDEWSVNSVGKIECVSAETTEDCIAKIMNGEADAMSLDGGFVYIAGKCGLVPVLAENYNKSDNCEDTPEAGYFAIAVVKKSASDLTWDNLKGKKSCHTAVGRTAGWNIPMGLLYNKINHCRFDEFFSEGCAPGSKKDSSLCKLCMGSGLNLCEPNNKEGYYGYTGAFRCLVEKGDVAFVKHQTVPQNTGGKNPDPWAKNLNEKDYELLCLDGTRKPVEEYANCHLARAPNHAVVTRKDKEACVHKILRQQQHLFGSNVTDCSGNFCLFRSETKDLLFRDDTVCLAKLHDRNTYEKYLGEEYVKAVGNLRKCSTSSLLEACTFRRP
Experimental: Evaluation was carried out by the following evaluation method D with respect to properties whether iron ions were captured from the transferrin iron complex (transferrin iron complex in which transferrin is chelated to iron ions) by the iron chelating agent according to Examples 1 to 2.
The iron chelating agent according to Example 1 was dissolved in 1×D-PBS (pH 7.2) to prepare an iron chelating agent solution (“Fe-Ser•Na (5 mM)”) having an iron chelating agent concentration of 5 mM, in the same manner as the preparation method of the iron chelating agent in evaluation A of the iron chelating agent.
Further, as described above, the iron chelating agent according to Example 2 was dissolved in 1×D-PBS (pH 7.2) to prepare an iron chelating agent solution (“Fe-His•Na (5 mM)”) having an iron chelating agent concentration of 5 mM.
Further, 800 mM HEDTA solution as the iron chelating agent according to Comparative Example 3 was prepared as described above. 13.76 g of crystals were taken in a 50 mL conical tube, 25 mL of Milli-Q water was added and dissolution performed, and then adjustment to pH 7.0 was performed using concentrated hydrochloric acid (35 to 37%) and the total amount was adjusted to 50 mL using Milli-Q water (HEDTA solution (800 mM)). HEDTA solution (“HEDTA solution (5 mM)”) having a concentration of HEDTA of 5 mM was prepared using 1×D-PBS (pH 7.2).
Further, 800 mM solution (pH 7.0) was prepared by using NTA2Na and NTA3Na as iron chelating agents according to Comparative Example 1 as described above. 9.4 g of NTA2Na was dissolved in Milli-Q water and the total volume was made up to 50 mL (referred to as “NTA2Na solution (800 mM)” in some cases). Meanwhile, 11.0 g of NTA3Na was dissolved in Milli-Q water and the total volume was made up to 50 mL (“NTA3Na solution (800 mM)”). NTA2Na solution (800 mM) (pH 6.3) and NTA3Na solution (800 mM) (pH 11.3) were mixed to produce 800 mM of NTA solution with pH 7.0. NTA solution (“NTA solution (5 mM)”) having a concentration of NTA of 5 mM was prepared by using 1×D-PBS (pH 7.2).
A commercially available transferrin iron complex (holo-Transferrin (hTf), human, Code T0665-50MG, Lot 095K1633, manufactured by Sigma Corporation) was dissolved in 1×D-PBS (pH 7.2) to prepare a transferrin iron complex solution having a concentration of iron ions (iron ions which are transferrin-bound iron) of 50 μM.
50 μl of 50 μM transferrin iron complex solution was taken in a 1.5 mL sample tube, 50 μl of each of iron chelating agent solutions (Fe-Ser•Na (5 mM), Fe-His•Na (5 mM), NTA solution (5 mM), HEDTA solution (5 mM)) was added thereto and left at room temperature under light shielding for 24 hours. 50 μl of various reaction liquids was taken in a centrifugal ultrafiltration unit (trade name “Amicon Ultra-4 Ultracel-30k” UFC8030, manufactured by Millipore Corporation), and 450 μl of 1×D-PBS (pH 7.2) was added thereto, centrifugation was carried out at 3,500 rpm and 20° C. for 30 minutes, and transferrin and each low molecular chelating agents were separated (first time). After centrifugation, the filtrate was discarded. 450 μl of 1×D-PBS (pH 7.2) was added again to the solution (about 50 μl) containing transferrin concentrated in a unit and centrifugation was carried out with the same conditions (second time). A solution containing transferrin concentrated in a unit was recovered after the second time of centrifugation and the absorbance at the wavelength of 466 nm was measured using a spectrophotometer (trade name “Spectrophotometer DU 640”, manufactured by Beckman Coulter).

[2] = system: iron citrate complex ammonium salt (FAC); assay: Evaluation C: chelating ability in MOPS/acetonitrile solvent, FAC solution
Experimental: (§1) Evaluation was carried out by the following evaluation method C as to whether or not the iron chelating agent according to Examples 1 to 3 had chelating ability with iron in 3-morpholinopropanesulfonic acid (C7H15NO4S;MOPS) and acetonitrile solution as solvents used in high performance liquid chromatography (HPLC).
(§2) 2.09 g of morpholinopropanesulfonic acid (C7H15NO4S; FW=209.26, Code 341-01801, Lot PX013, manufactured by Dojindo/Wako Corporation) was added to a 100 mL Erlenmeyer flask, 80 mL of ultrapure water (pure water produced by an ultrapure water production system manufactured by Millipore Corporation (Milli-Q); “Milli-Q water”) was added thereto and dissolved [pH 4.15 (24.4° C.)]. To this solution, 1N sodium hydroxide solution (1 mol/1 sodium hydroxide solution, Code 192-02175, Lot SEP7274, manufactured by Wako Pure Chemicals Industries) was added in 100 μl portions, the pH was adjusted to 7.0 and further Milli-Q water was made up to 100 mL in a measuring cylinder, whereby 100 mL of MOPS solution (pH 6.99) was prepared.
(§3) An iron chelating agent solution having an iron chelating agent concentration of 50 mM was prepared with respect to the iron chelating agent according to Examples 1 to 3, in the same manner as the preparation method of the iron chelating solution in evaluation A of the iron chelating agent.
(§4) Further, 100 mM of MOPS solution (pH6.99) prepared by the preparation method of the MOPS solution was used.
(§5) Furthermore, a stock solution of acetonitrile (C2H3N, FW=41.05, Code 347-06641, Lot WPI96, manufactured by Dojindo/Wako corporation) was used.
(§6) 13.8 mL of Milli-Q water was taken in a 50 mL conical tube, 1.2 mL of each of the iron chelating agent solutions (Fe-Ser•Na (50 mM), Fe-His•Na (50 mM), Fe-Glu•Na (50 mM)) according to the iron chelating agents of Examples 1 to 3 was added, 1.0 mL of 100 mM MOPS solution was added thereto, and a further 4.0 mL of acetonitrile solution was added to produce an iron chelating solution using MOPS. The iron chelating agent solutions using MOPS and iron chelating agent according to Examples 1 to 3 were defined respectively as Fe-Ser•Na (MOPS solution)” (iron chelating agent according to
(§7) Example 1), “Fe-His•Na (MOPS solution)” (iron chelating agent according to Example 2), and “Fe-Glu•Na(MOPS solution)” (iron chelating agent according to Example 3).
An iron citrate complex ammonium salt solution (FAC solution (20 mM)) having a concentration of iron ions of 20 mM and an iron citrate complex ammonium salt solution (FAC solution (2 mM)) having a concentration of iron ions of 2 mM were prepared, in the same manner as the preparation method of the iron citrate complex ammonium solution in evaluation A of the iron chelating agent.
FAC solution (20 mM) was added to and mixed with each of the iron chelating agent solutions [Fe-Ser•Na (MOPS solution), Fe-His•Na (MOPS solution), Fe-Glu•Na (MOPS solution)] using MOPS.

[3] = system: iron nitrilotriacetate complex (Fe-NTA); assay: Evaluation C: chelating ability in MOPS/acetonitrile solvent, Fe-NTA solution
Experimental: as §1, §2, §3, §4, §5, §6, §7
Further, iron nitrilotriacetate complex solution (“Fe-NTA solution (20 mM)”) having a concentration of iron ions of 20 mM and iron nitrilotriacetate complex solution (“Fe-NTA solution (2 mM)”) having a concentration of iron ions of 2 mM were prepared, in the same manner as the preparation method of iron nitrilotriacetate complex solution in evaluation B of the iron chelating agent.
Further, Fe-NTA solution (20 mM) was added to and mixed with each of the iron chelating agent solutions [Fe-Ser•Na (MOPS solution), Fe-His•Na (MOPS solution), Fe-Glu•Na (MOPS solution)] using MOPS. […] Further, Fe-NTA solution (2 mM) was added and mixed thereto as described above.

[4] = FAC solution (2 mM) added to chelating agent MOPS solution (MOPS, acetonitrile)
[5] = FAC solution (20 mM) added to chelating agent MOPS solution (MOPS, acetonitrile)
[6] = Fe-NTA solution (2 mM) added to chelating agent MOPS solution (MOPS, acetonitrile)
[7] = Fe-NTA solution (20 mM) added to chelating agent MOPS solution (MOPS, acetonitrile)

- hTf residual ratio (%) [1]: 79.59%
- Absorbance (466 nm) [1]: 0.0589
Molecule: O=C(O)CN(CC(=O)O)CC(=O)O [Comparative Example 1, nitrilotriacetic acid, reference compound]

Molecule: O=C(O)C(Cc1c[nH]cn1)NCc1ccccc1O (centres unmarked) [Example 2, o-[(1-carboxy-2-(1H-imidazol-4-yl)ethyl)-amino-methyl]-phenol]
- colour of the solution after mixing [2, 4]: dark brown-colored
- colour of the solution after mixing [2, 5]: dark brown-colored
- colour of the solution after mixing [3, 6]: dark brown-colored
- colour of the solution after mixing [3, 7]: dark brown-colored
- hTf residual ratio (%) [1]: 83.78%
- Absorbance (466 nm) [1]: 0.0620

Molecule: NC(=O)CCC(NCc1ccccc1O)C(=O)O (centres unmarked) [Example 3, o-[(1-carboxy-2-carbamoylmethylethyl)-amino-methyl]-phenol]
- colour of the solution after mixing [2, 4]: dark brown-colored
- colour of the solution after mixing [2, 5]: dark brown-colored
- colour of the solution after mixing [3, 6]: dark brown-colored
- colour of the solution after mixing [3, 7]: dark brown-colored

Molecule: N-(2-hydroxyethyl)-ethylenediamine triacetic acid [Comparative Example 3, reference compound]
- hTf residual ratio (%) [1]: 69.59%
- Absorbance (466 nm) [1]: 0.0515
